# Source: ChEMBL document CHEMBL1201862, “PubChem BioAssay data set” (2004)
# The source made the active and inactive calls. Unless noted, no cut-off for these calls is given here.
# Legend:
# [1] = molecular target: T1, Caspase-3 (Homo sapiens, UniProt P42574); assay: procaspase-3 activation potency of dual hits, dose response, counter-screen for dual procaspase-3/7 activator project, biochemical, absorbance, PC-3 D3A mutant (AID 504328)
# T1 sequence (P42574 whole entry): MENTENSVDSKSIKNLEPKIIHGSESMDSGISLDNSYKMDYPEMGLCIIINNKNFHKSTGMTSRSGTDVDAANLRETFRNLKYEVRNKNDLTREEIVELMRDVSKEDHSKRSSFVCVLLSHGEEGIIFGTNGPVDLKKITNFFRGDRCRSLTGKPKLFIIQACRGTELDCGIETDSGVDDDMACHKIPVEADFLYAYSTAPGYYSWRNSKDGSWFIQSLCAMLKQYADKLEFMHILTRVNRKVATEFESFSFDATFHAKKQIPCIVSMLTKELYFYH
# [2] = molecular target: Caspase-7 (Homo sapiens, UniProt P55210); assay: procaspase-7 activators, dose response, dual procaspase-3/-7 activator project, biochemical, absorbance, human (AID 504330)
# [3] = test system: Trypanosoma cruzi; assay: growth inhibition of intracellular Trypanosoma cruzi, dose response, cell-based, plate reader, dry powder, set 3 (AID 493197); assay type: functional
# [4] = cytotoxicity in NIH/3T3 mouse fibroblasts, dose response, cytotoxicity control, cell-based, mouse embryonic fibroblasts, dry powder, set 2 (AID 493247); assay type: functional; settings: Fibroblast
# [5] = molecular target: Protein phosphatase methylesterase 1 (Homo sapiens, UniProt Q9Y570); assay: PME-1 inhibitor potency by in-gel ABPP, dose response, selectivity assay for PME-1 inhibitor project, cell lysate, mouse brain cytosol, FP-rhodamine, panel member PME-1 Assay Panel member description: Inhibition of endogenously expressed PME-1 (AID 2366)
# Protein phosphatase methylesterase 1, sequence (Q9Y570 whole entry): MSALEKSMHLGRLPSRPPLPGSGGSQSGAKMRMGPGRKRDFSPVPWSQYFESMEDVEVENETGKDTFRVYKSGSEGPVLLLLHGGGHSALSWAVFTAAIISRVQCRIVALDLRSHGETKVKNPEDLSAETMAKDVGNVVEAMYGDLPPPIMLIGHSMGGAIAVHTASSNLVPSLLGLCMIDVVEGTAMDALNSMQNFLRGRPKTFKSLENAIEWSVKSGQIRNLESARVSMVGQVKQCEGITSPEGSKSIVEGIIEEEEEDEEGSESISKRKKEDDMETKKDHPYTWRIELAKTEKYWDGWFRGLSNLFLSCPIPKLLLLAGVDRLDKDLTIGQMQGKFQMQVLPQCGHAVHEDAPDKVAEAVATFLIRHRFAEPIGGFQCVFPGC
# [6] = molecular target: T2, Intestinal-type alkaline phosphatase (Homo sapiens, UniProt P09923); assay: human intestinal alkaline phosphatase activators, dose response, biochemical, luminescence, uHTS hits (AID 463120); assay type: functional
# T2 sequence (P09923 whole entry): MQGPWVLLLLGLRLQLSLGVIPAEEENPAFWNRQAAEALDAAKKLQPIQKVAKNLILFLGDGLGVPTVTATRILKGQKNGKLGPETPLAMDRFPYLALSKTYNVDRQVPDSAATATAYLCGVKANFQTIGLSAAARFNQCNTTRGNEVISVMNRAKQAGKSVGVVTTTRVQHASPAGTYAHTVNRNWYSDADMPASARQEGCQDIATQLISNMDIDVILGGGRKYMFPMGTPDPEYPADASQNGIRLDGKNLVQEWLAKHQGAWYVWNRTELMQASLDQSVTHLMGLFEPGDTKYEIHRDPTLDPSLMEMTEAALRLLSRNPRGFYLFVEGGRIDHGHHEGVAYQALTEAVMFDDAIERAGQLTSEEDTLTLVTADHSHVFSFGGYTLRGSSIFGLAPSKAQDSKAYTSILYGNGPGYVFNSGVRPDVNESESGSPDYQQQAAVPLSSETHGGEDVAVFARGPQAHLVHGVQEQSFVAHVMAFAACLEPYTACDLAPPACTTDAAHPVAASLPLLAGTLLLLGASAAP
# [7] = molecular target: T2, Intestinal-type alkaline phosphatase; assay: Dose Response confirmation of uHTS hits from a small molecule inhibitors of human intestinal alkaline phosphatase via a luminescent assay. [Related pubchem assays (depositor defined):AID2544, AID2574]; assay type: functional
# [8] = test system: Saccharomyces cerevisiae; assay: NALP1 inhibitor project selectivity study, Caspase-1/ASC signal blockade IC50 in S. cerevisiae (AID 488863); assay type: functional, organism-based
# [9] = molecular target: NACHT, LRR and PYD domains-containing protein 1 (Homo sapiens, UniProt Q9C000); assay: NALP1 inhibitors in yeast, dose response, luminescent (AID 488860); assay type: functional
# NACHT, LRR and PYD domains-containing protein 1, sequence (Q9C000 1-1212 limits assumed): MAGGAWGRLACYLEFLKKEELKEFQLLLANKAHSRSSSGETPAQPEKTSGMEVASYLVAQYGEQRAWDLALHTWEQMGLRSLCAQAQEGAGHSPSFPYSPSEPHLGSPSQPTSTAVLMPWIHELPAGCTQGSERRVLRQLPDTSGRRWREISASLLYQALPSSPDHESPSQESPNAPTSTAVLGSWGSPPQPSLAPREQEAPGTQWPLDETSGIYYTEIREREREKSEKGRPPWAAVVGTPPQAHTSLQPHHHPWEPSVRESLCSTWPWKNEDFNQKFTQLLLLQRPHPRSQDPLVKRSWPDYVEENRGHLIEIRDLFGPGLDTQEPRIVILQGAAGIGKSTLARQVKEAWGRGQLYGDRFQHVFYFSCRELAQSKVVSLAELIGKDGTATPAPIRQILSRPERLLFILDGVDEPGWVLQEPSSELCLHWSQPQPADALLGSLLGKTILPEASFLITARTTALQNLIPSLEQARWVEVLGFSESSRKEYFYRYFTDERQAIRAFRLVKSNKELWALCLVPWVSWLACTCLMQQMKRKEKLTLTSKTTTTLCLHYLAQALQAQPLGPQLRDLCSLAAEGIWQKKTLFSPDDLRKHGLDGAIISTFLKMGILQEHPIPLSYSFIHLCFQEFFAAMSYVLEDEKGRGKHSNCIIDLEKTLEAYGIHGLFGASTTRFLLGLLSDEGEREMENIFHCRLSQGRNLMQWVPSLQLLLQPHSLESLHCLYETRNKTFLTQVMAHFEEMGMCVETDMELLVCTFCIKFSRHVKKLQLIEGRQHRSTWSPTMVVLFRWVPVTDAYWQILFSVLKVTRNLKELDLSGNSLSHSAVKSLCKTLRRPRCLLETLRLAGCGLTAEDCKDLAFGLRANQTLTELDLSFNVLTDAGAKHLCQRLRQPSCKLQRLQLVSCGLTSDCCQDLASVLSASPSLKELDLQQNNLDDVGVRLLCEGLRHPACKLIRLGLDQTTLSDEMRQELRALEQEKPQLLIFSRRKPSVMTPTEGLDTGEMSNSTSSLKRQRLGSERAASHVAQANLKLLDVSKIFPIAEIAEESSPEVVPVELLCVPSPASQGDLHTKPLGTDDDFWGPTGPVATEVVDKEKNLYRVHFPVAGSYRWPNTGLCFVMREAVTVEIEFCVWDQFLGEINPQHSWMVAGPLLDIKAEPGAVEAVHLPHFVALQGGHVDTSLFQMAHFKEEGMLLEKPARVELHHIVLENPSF
# NACHT, LRR and PYD domains-containing protein 1, sequence (Q9C000 1213-1473 limits assumed): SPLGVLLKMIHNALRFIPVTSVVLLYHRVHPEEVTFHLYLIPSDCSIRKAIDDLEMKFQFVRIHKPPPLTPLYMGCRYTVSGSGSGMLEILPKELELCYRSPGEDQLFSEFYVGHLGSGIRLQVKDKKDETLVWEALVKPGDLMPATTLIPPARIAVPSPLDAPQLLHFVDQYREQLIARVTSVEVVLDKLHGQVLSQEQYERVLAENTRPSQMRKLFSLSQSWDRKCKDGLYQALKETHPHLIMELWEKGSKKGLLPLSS
compound,measurement,setting,value
COc1ccc(-c2cc(C(=O)OC3CCOC3=O)c3ccccc3n2)cc1OC (centres undefined),EC50,[1],> 85.3 µM (inactive)
same,EC50,[2],> 85.3 µM (inactive)
COc1ccc(CCN(C)C(=O)C2CCCN(Cc3ccc(F)cc3)C2)cc1OC (centres undefined),AC50,[3],4.33 µM (active)
same,AC50,[4],64.7 µM (active)
N#CC(C#N)=Cc1cccn1S(=O)(=O)c1ccc(F)cc1F,IC50,[5],20 µM (inactive)
CCn1cc(CN2CCN(C)C(CCO)C2)c2ccccc21 (centres undefined),EC50,[6],> 100 µM (inactive)
same,IC50,[7],> 100 µM (inactive)
O=C(NCCCc1ccccc1)c1ccccc1O,IC50,[8],11.5 µM (active)
same,IC50,[9],13.1 µM (active)
